Counter-ions that a name gives are not always drawn.
Assays:
[1] = tested on: human umbilical vein endothelial cells (HUVEC); assay: Nitric oxide production (nitrite+nitrate) in NAS-treated HUVEC; assay type: cell-based; conditions: 5-22 hours treatment
Description: Cultured human umbilical vein endothelial cells (HUVEC) were pretreated with 3 mM N-acetylserotonin (NAS), an inhibitor of the enzyme sepiapterin reductase. Inhibition of this pathway typically results in loss of endogenous BH4, depressing the endogenous eNOS activity far below normal and provides an assay to test for restoration of eNOS activity.
Thus, subconfluent HUVECs were seeded in a 24-well plate and grown overnight in EGM2 medium (full growth medium). The next morning, fresh medium was added to the cells (300 μL/well), 3 mM N-acetylserotonin (NAS), an inhibitor of the enzyme sepiapterin reductase (a member of the synthesis pathway for endogenous BH4) was added to the cells to decrease the endogenous BH4 levels. After an incubation of 1.5 hours, 50, 100, or […] BH4 or compound of Example 5, Example 6, Example 7, or Example 9 were added to the cells. The cells were allowed to react with the BH4 or the compound of Example 5, Example 7, or Example 9 for 5-22 hours. The production of NO was then measured as changes in total (nitrite+nitrate) by the Griess reaction subsequent to nitrate reductase treatment. 90 μL of reaction mixture (25 mM Tris-HCL, pH7.4, 1 μM FAD, 1 μM FMN, 100 μM L-Arginin 2.5 mM CaCl2, 1 mM NADPH, 0.04 mg/ml Calmodulin) was mixed with 5 μl of eNOS (15 units/ml) and 5 μl of BH4 or BH4 analogs (1, 10, 100 μM), followed by incubation in a 37° C. water bath for 90 minutes. Then 100 μl of water and 20 μl of the nitrite fluorescent probe DAN (2,3-diaminonaphthalene, 316 μM) were added to each reaction and incubated at room temperature for 10 minutes. The dye DAN reacts with nitrite to yield the fluorescent product naphthotriazole. The reaction was then stopped by adding 10 μl of NaOH (2.8 M), and the fluorescence of the samples was read using excitation frequency 375 nm and emission frequency 415 nm. The percentage of nitrite+nitrate with BH4 or compound of Example 5, Example 7, or Example 9 is shown in FIG. 17 (after 5 hours); FIG. 18 (after 17 hours); and FIG. 19 (after 22 hours). The results for Example 6 are shown in FIG. 20 (after 5 hours) and FIG. 21 (after 20 hours).

[2] = tested on: Spontaneously Hypertensive rats (SHR); assay: Anti-hypertensive effect, tail-cuff systolic blood pressure in SHR; assay type: in vivo, rat; conditions: SHR; for decrease in systolic blood pressure (SBP): 3 weeks
Description: This study was to determine if the BH4 analogs have a similar hypotensive effect and to determine the steady state pharmacokinetics (PK) profiles of plasma BH4 concentrations.
Male Wistar-Kyoto (WKY) rats and SHR rats (Elevage Janvier, France, 7 weeks old) were housed seven days prior to the beginning of experiments with free access to standard chow and water and maintained on an inversed 12 h dark/light cycle (10:00/22:00). After a one week acclimation period, the animals were trained to the tail-cuff system during one week (3 sessions). The following week, two baseline measurements of blood pressure were performed.
The rats (10 weeks old) then received respective treatments of water, vehicle, 2, 10, or 30 mg/kg/day of BH4 analog (Example 5, Val-BH4) or 100 mg/kg/day BH4 by oral gavage (8 mL/kg, dissolved in 100 μM ascorbic acid) performed once a day during 21 days of treatment. The doses of BH4 analog were prepared as mg/kg equivalents of BH4 (calculated using BH4 and BH4 analog 2HCl molecular weights). Body weight was monitored 3 times per week and the most recent body weight was used to adjust drug and vehicle daily intake. Seven experimental groups of rats were evaluated: Group 1—normotensive WKY rats and water gavage; Group 2—hypertensive SHR rats and water gavage; Group 3—hypertensive SHR rats and vehicle gavage; Group 4—hypertensive SHR rats and BH4 100 mg/kg/day gavage; Group 5—hypertensive SHR rats and BH4 analog 2 mg/kg/day gavage; Group 6—hypertensive SHR rats and BH4 analog 10 mg/kg/day gavage; Group 7—hypertensive SHR rats and 30 mg/kg/day BH4 analog gavage. To account for animal loss or animal disqualification during experimental handling, 10 rats were used in each group, with the expectation to obtain interpretable results for at least 8. Systolic blood pressure (SBP) and heart rate (HR) were measured twice weekly during the 3-week treatment period.
Systolic blood pressure (SBP) and heart rate (HR) were measured using the tail-cuff method, twice before the beginning of the treatment and twice weekly during the 3 week treatment period (6 measurements during the treatment period). Rats were placed in a plastic restraint and warmed to […]. A pneumatic pulse sensor was attached to the tail. After cuff inflation, SBP was measured and HR was determined by counting pulse numbers per minute. Data for each rat was taken an average of at least 4 stable readings. At least 10 cuff inflations were performed for each BP measurement.

Structure (SMILES): CC(C)[C@H](N)C(=O)O[C@@H](C)[C@H](O)[C@H]1CNc2nc(N)[nH]c(=O)c2N1 [Example 5, 2-Amino-3-methyl-butyric acid 2-(2-amino-4-oxo-3,4,5,6,7,8-hexahydro-pteridin-6-yl)-2-hydroxy-1-methyl-ethyl ester dihydrochloride]
- NO production (nitrite+nitrate) [1]: increased NO production in a dose-dependent manner
- decrease in systolic blood pressure (SBP) ([2]; 2 mg/kg/day oral gavage (BH4 equivalents)): 6.8 mmHg
- decrease in SBP compared with BH4 100 mg/kg ([2]; 10 mg/kg/day during 3 weeks, FIG. 31): decreased SBP to the same extent as a 10-fold greater dose of BH4
- decrease in systolic blood pressure (SBP) ([2]; 10 mg/kg/day oral gavage (BH4 equivalents)): 13.9 mmHg
- decrease in systolic blood pressure (SBP) ([2]; 30 mg/kg/day oral gavage (BH4 equivalents)): 13.7 mmHg
